Where “and” joins values, the source holds several entries; their conditions need not be identical. Identical values can stand only once.
Legend:
[1] = XTT cell viability assay, CDV alone, A549 cells; format: cell-based; conditions: human; A549 cells, XTT; read-out: CC50, CDV concentration that reduce the relative cell viability to 50%
Procedure: (§1) Cells frozen in liquid nitrogen were thawed in water bath at 37° C., seeded at T25 flask, and cultured at 70-90% sub-confluent monolayer. Cells were detached with trypsin, and prepared suspension at a concentration of 1.0×10^4 cells/ml.
(§2) Cells were seeded in 96 well-plate (100 μL/well, 1000 cells/well), then cultured with 5% CO2 at 37° C.
(§3) Viruses were diluted at MOI of 1 (OBP-301, OBP-202) in H1299 and 5 in A549 (PFU/cell). Medium in each well was removed, 150 μL of diluted virus solution was added to each well of the plate. 2 hours later, medium was aspirated and replaced with fresh medium containing 2% FCS and serially diluted CDV. Cells were incubated with 5% CO2 at 37° C. for 7 days after infection.
(§4) 100 μL of PBS, 50 μL of XTT labeling reagent, and 1 μL of ion coupling reagent per well of plate were mixed.
(§5) Medium in each well of plate was removed, and 150 μL of mixture prepared above was added to each well. Plate was incubated with 5% CO2 at 37° C. for 4 hours, and then calculated absorbance at 450 nm and 690 nm. Protection was determined by the formula below: […]

A549 cells = experiment: XTT cell viability assay, CDV alone, A549 cells; format: cell-based; conditions: for Relative cell viability Ave. / Relative cell viability: A549, no virus, 7 days; for Relative cell viability: single wells, dihydrate
Procedure: as §1, §2, §3, §4, §5

TelomeScan (OBP-401) = experiment: XTT assay, protection from cytopathic effect of TelomeScan (OBP-401) in H1299 cells; format: cell-based, adenovirus; conditions: for Protection (%) Ave. / Protection (%): OBP-401 MOI 0.1, H1299, 7 days; for Protection (%): single wells, dihydrate
Procedure: as §1, §2
as §3, with “0.1 (OBP-401) or 10 (ONYX-015)” for “1 (OBP-301, OBP-202)”, “H1299.” for “H1299 and 5 in A549 (PFU/cell).”, “50” for “150”
as §4
Medium in each well of plate was removed, and 150 μL of mixture prepared above was added to each well. Plate was incubated with 5% CO2 at 37° C. for 4 hours, and then calculated absorbance at 450 nm and 690 nm. Protection was determined by the formula below:
Protection(%)={OD(AdV(+):CDV(+))−OD(AdV(+):CDV(−))}/{OD(AdV(−):CDV(+))−OD(AdV(+):CDV(−))}×100.

Question: Which results are given for `Nc1ccn(C[C@@H](CO)OCP(=O)(O)O)c(=O)n1.O.O` [CDV, 1-[(S)-3-hydroxy-2-(phosphonomethoxy)propyl]cytosine dihydrate]?
Answer: CC50 at 7 days [1]: 107 µM; toxicity of CDV itself (A549 cells; A549 cells, high concentrations): toxic; Relative cell viability Ave. (A549 cells; CDV 10 μM): 0.969; Relative cell viability (A549 cells; CDV 10 μM): 0.993 and 0.938 and 0.962 and 0.982; Relative cell viability Ave. (A549 cells; CDV 20 μM): 0.935; Relative cell viability (A549 cells; CDV 20 μM): 0.982 and 0.877 and 0.924 and 0.958; Relative cell viability Ave. (A549 cells; CDV 30 μM): 0.912; Relative cell viability (A549 cells; CDV 30 μM): 0.944 and 0.883 and 0.881 and 0.939; Relative cell viability Ave. (A549 cells; CDV 40 μM): 0.908; Relative cell viability (A549 cells; CDV 40 μM): 0.951 and 0.860 and 0.910 and 0.911; Relative cell viability Ave. (A549 cells; CDV 50 μM): 0.852; Relative cell viability (A549 cells; CDV 50 μM): 0.819 and 0.842 and 0.862 and 0.884; Relative cell viability Ave. (A549 cells; CDV 60 μM): 0.798; Relative cell viability (A549 cells; CDV 60 μM): 0.755 and 0.792 and 0.809 and 0.837; Relative cell viability Ave. (A549 cells; CDV 70 μM): 0.720; Relative cell viability (A549 cells; CDV 70 μM): 0.709 and 0.703 and 0.747 and 0.719; Relative cell viability Ave. (A549 cells; CDV 80 μM): 0.696; Relative cell viability (A549 cells; CDV 80 μM): 0.656 and 0.707 and 0.737 and 0.683; Relative cell viability Ave. (A549 cells; CDV 90 μM): 0.544; Relative cell viability (A549 cells; CDV 90 μM): 0.502 and 0.552 and 0.606 and 0.518; Relative cell viability Ave. (A549 cells; CDV 100 μM): 0.471; Relative cell viability (A549 cells; CDV 100 μM): 0.511 and 0.451 and 0.482 and 0.438; Protection (%) Ave. (TelomeScan (OBP-401); CDV 0.01 μM): −0.229%; Protection (%) (TelomeScan (OBP-401); CDV 0.01 μM): −1.063% and 0.309% and −0.240% and 0.080%; Protection (%) Ave. (TelomeScan (OBP-401); CDV 0.06 μM): 0.057%; Protection (%) (TelomeScan (OBP-401); CDV 0.06 μM): −0.423% and −0.514% and 1.589%; Protection (%) Ave. (TelomeScan (OBP-401); CDV 0.32 μM): 0.171%; Protection (%) (TelomeScan (OBP-401); CDV 0.32 μM): 0.400% and 0.674% and −0.789%; Protection (%) Ave. (TelomeScan (OBP-401); CDV 1.6 μM): 1.931%; Protection (%) (TelomeScan (OBP-401); CDV 1.6 μM): 3.006% and −0.057% and 2.594% and 2.183%; Protection (%) Ave. (TelomeScan (OBP-401); CDV 8 μM): 0.469%; Protection (%) (TelomeScan (OBP-401); CDV 8 μM): 3.280% and 0.263% and −0.743% and −0.926%; Protection (%) Ave. (TelomeScan (OBP-401); CDV 40 μM): 40.926%; Protection (%) Ave. (TelomeScan (OBP-401); CDV 200 μM): 15.154%; Protection (%) Ave. (TelomeScan (OBP-401); CDV 1000 μM): 1.463%; Protection (%) (TelomeScan (OBP-401); CDV 1000 μM): 0.446% and 0.537% and 3.554% and 1.314%; cytopathic effect induced by TelomeScan (TelomeScan (OBP-401); H1299 cells, FIG. 2A): apparently inhibited

Source: patent US20090181931A1, “ANTIVIRAL ACTIVITY OF CIDOFOVIR AGAINST ONCOLYTIC VIRUSES” (priority 2008, published 2009)
